Tests used:
Kdr = Kdr (Homo sapiens, UniProt P35968); experiment: Kinase activity assay, Kdr
C-Raf = C-Raf (Homo sapiens, UniProt P04049); experiment: Kinase activity assay, C-Raf
B-Raf V600E = B-Raf V600E (Homo sapiens, UniProt P15056, V600E); experiment: Kinase activity assay, B-Raf V600E; format: biochemical; details: read-out: activity toward kinase B-Raf V600E, IC50
B-Raf = B-Raf (Homo sapiens, UniProt P15056); experiment: Kinase activity assay, B-Raf; format: biochemical; details: read-out: activity toward kinase B-Raf, IC50
Kit = Kit (Homo sapiens, UniProt P10721); experiment: Kinase activity assay, Kit
Src = Src (Homo sapiens, UniProt P12931); experiment: Kinase activity assay, Src
Src, sequence (P12931 whole entry): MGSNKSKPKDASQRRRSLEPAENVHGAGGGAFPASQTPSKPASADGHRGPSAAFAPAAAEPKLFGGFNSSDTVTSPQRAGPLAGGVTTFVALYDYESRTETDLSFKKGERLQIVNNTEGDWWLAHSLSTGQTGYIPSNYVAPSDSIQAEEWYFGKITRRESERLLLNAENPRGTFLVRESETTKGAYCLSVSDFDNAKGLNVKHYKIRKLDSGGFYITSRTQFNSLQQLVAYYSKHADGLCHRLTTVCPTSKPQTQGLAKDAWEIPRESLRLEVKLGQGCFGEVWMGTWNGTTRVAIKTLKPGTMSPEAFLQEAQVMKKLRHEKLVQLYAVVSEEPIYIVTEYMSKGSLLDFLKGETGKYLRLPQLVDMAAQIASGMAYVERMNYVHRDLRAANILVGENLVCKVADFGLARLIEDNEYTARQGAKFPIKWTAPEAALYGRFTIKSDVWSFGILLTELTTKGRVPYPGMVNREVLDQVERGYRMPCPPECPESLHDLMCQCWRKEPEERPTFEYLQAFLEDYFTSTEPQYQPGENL

Kdr, sequence (P35968 20-1356): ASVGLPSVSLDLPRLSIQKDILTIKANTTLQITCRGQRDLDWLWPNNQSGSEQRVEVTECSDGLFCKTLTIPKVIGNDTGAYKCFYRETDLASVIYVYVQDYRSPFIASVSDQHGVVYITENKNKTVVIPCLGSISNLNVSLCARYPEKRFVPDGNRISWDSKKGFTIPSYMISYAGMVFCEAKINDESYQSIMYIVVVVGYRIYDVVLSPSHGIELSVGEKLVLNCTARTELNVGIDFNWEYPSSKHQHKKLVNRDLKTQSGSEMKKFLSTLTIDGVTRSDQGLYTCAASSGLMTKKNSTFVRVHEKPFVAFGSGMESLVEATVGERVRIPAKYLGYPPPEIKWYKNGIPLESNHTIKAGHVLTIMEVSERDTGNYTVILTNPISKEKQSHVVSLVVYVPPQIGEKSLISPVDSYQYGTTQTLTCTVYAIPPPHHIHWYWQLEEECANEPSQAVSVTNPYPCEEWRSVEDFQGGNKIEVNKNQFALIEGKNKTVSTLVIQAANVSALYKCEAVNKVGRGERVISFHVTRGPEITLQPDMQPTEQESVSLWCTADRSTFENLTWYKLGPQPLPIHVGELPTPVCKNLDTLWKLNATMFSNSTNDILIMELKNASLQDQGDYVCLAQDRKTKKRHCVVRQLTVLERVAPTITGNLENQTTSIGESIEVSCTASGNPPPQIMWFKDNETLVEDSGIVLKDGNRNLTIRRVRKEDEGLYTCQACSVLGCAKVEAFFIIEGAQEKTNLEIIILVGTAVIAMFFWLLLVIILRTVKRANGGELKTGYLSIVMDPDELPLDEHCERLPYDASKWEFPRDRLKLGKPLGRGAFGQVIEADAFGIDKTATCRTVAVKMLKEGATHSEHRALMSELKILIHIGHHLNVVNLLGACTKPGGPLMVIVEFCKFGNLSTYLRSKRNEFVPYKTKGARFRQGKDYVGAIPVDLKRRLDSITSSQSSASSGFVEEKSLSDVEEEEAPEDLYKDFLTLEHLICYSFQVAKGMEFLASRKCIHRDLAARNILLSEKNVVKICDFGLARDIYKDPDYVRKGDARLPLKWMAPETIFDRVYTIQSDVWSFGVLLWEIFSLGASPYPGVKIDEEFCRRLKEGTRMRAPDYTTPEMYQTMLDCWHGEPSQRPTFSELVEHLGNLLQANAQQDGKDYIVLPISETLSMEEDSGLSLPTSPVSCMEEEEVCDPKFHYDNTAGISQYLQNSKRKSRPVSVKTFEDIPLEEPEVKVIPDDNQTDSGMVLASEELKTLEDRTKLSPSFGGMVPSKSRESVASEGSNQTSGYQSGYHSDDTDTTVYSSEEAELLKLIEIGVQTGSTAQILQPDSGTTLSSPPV
B-Raf V600E, sequence (P15056 whole entry V600E): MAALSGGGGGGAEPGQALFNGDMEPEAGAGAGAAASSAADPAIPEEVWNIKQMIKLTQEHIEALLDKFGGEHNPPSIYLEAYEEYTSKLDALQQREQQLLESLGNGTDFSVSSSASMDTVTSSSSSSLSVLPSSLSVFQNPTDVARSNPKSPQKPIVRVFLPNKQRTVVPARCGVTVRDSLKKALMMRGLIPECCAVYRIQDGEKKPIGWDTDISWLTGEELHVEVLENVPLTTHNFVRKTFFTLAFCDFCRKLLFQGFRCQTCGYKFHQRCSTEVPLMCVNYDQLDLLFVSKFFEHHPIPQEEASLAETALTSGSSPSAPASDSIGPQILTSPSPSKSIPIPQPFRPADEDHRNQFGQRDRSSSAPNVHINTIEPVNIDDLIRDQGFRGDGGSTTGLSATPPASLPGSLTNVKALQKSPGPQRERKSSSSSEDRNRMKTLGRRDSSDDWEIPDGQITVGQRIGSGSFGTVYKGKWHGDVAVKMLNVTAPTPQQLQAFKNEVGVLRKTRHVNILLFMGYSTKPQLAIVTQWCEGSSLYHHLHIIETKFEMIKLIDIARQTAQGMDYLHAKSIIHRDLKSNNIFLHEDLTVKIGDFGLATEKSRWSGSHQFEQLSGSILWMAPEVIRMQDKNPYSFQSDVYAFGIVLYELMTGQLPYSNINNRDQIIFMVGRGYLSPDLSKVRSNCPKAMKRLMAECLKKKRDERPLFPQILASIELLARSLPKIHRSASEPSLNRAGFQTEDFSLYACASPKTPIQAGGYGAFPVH
C-Raf, sequence (P04049 whole entry): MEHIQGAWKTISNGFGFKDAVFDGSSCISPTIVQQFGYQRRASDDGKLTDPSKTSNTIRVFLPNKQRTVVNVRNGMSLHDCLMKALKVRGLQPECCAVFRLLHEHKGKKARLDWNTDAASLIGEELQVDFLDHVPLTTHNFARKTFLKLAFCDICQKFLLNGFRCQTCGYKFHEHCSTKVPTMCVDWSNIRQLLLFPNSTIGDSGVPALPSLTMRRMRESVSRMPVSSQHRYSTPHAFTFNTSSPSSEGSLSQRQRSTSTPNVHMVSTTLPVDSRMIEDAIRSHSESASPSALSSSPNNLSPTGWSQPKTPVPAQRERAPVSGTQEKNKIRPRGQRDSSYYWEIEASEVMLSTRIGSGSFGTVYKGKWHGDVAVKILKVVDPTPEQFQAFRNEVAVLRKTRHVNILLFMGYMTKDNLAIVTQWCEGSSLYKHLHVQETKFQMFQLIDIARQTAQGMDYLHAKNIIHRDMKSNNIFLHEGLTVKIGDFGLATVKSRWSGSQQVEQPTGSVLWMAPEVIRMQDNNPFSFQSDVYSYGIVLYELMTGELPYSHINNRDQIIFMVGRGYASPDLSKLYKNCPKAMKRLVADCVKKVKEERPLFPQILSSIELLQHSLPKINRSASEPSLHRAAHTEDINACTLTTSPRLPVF
B-Raf, sequence (P15056 whole entry): as the sequence (P15056 whole entry V600E) above, with E600V counted along it
Kit, sequence (P10721 26-976): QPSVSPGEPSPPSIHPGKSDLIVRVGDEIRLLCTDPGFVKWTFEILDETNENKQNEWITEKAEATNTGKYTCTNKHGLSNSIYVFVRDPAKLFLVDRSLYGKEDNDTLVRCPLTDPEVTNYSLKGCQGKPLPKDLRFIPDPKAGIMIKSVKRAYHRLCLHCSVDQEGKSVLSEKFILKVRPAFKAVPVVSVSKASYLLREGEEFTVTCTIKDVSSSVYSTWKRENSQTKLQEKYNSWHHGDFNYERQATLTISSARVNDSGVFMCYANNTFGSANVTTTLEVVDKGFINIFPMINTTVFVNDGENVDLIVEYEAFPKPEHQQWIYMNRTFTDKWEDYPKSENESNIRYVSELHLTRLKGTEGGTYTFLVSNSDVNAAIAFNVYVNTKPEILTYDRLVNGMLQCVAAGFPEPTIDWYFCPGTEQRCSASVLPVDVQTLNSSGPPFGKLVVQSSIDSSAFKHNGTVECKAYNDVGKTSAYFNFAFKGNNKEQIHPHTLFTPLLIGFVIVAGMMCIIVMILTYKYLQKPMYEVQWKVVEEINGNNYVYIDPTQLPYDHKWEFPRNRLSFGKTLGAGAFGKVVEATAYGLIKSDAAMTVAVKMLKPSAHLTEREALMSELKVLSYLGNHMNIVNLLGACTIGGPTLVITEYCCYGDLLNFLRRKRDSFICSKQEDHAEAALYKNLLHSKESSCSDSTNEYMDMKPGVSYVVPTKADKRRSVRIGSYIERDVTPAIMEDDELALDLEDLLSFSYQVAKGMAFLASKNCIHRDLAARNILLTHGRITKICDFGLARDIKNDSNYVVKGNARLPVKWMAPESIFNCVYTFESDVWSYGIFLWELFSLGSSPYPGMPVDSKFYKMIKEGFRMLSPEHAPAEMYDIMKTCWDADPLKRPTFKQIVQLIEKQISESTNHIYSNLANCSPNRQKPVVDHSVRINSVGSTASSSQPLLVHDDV

IC50 (Kdr) [µM] | IC50 (C-Raf) [µM] | IC50 (B-Raf V600E) [µM] | IC50 (B-Raf) [µM] | IC50 (Kit) [µM] | IC50 (Src) [µM] | SMILES
≤ 10 | ≤ 10 | ≤ 10 | ≤ 10 | ≤ 10 | – | O=C(c1cccc(NS(=O)(=O)c2ccc(C(F)(F)F)cc2)c1F)c1c[nH]c2ncc(Cl)cc12 [P-2058, N-[3-(5-Chloro-1H-pyrrolo[2,3-b]pyridine-3-carbonyl)-2-fluoro-phenyl]-4-trifluoromethyl-benzenesulfonamide]
– | ≤ 10 | ≤ 10 | ≤ 10 | – | ≤ 10 | COc1ccnc2[nH]cc(C(=O)c3c(F)ccc(NS(=O)(=O)c4cccnc4)c3F)c12 [P-2073, Pyridine-3-sulfonic acid [2,4-difluoro-3-(4-methoxy-1H-pyrrolo[2,3-b]pyridine-3-carbonyl)-phenyl]-amide]
≤ 10 | – | ≤ 10 | – | ≤ 10 | – | N#Cc1cnc2[nH]cc(C(=O)c3c(F)ccc(NS(=O)(=O)Cc4cccnc4)c3F)c2c1 [P-2094, N-[3-(5-Cyano-1H-pyrrolo[2,3-b]pyridine-3-carbonyl)-2,4-difluoro-phenyl]-C-pyridin-3-yl-methanesulfonamide]
≤ 10 | – | – | ≤ 10 | ≤ 10 | – | O=C(c1cc(NS(=O)(=O)c2ccc(OC(F)(F)F)cc2)ccc1F)c1c[nH]c2ncc(Cl)cc12 [P-2109, N-[3-(5-Chloro-1H-pyrrolo[2,3-b]pyridine-3-carbonyl)-4-fluoro-phenyl]-4-trifluoromethoxy-benzenesulfonamide]
≤ 10 | – | – | ≤ 10 | ≤ 10 | – | O=C(c1cccc(NS(=O)(=O)c2ccc(C(F)(F)F)cc2)c1)c1c[nH]c2ncc(Cl)cc12 [P-2126, N-[3-(5-Chloro-1H-pyrrolo[2,3-b]pyridine-3-carbonyl)-phenyl]-4-trifluoromethyl-benzenesulfonamide]
≤ 10 | – | ≤ 10 | – | – | ≤ 10 | CCCS(=O)(=O)Nc1ccc(F)c(C(=O)c2c[nH]c3ncc(-c4c(C)noc4C)cc23)c1F [P-2156, Propane-1-sulfonic acid {3-[5-(3,5-dimethyl-isoxazol-4-yl)-1H-pyrrolo[2,3-b]pyridine-3-carbonyl]-2,4-difluoro-phenyl}-amide]
≤ 10 | – | ≤ 10 | ≤ 10 | – | ≤ 10 | CCCS(=O)(=O)Nc1ccc(F)c(C(=O)c2c[nH]c3ncc(-c4ccc(Cl)c(C(F)(F)F)c4)cc23)c1F [P-2171, Propane-1-sulfonic acid {3-[5-(4-chloro-3-trifluoromethyl-phenyl)-1H-pyrrolo[2,3-b]pyridine-3-carbonyl]-2,4-difluoro-phenyl}-amide]
≤ 10 | – | ≤ 10 | ≤ 10 | – | ≤ 10 | CCCS(=O)(=O)Nc1ccc(F)c(C(=O)c2c[nH]c3ncc(-c4c(-c5ccccc5)noc4C)cc23)c1F [P-2191, Propane-1-sulfonic acid {2,4-difluoro-3-[5-(5-methyl-3-phenyl-isoxazol-4-yl)-1H-pyrrolo[2,3-b]pyridine-3-carbonyl]-phenyl}-amide]
≤ 10 | ≤ 10 | ≤ 10 | ≤ 10 | – | – | CCCS(=O)(=O)Nc1ccc(F)c(C(=O)c2c[nH]c3ncc(-c4ccc(S(=O)(=O)N5CCCC5)cc4)cc23)c1F [P-2227, Propane-1-sulfonic acid (2,4-difluoro-3-{5-[4-(pyrrolidine-1-sulfonyl)-phenyl]-1H-pyrrolo[2,3-b]pyridine-3-carbonyl}-phenyl)-amide]
≤ 10 | – | – | ≤ 10 | – | ≤ 10 | CCCS(=O)(=O)Nc1ccc(F)c(C(=O)c2c[nH]c3ncc(C(=O)N(C)C)cc23)c1F [P-2237, 3-[2,6-Difluoro-3-(propane-1-sulfonylamino)-benzoyl]-1H-pyrrolo[2,3-b]pyridine-5-carboxylic acid dimethyl amide]
≤ 10 | ≤ 10 | ≤ 10 | ≤ 10 | – | – | CCS(=O)(=O)Nc1ccc(F)c(C(=O)c2c[nH]c3ncc(C#N)cc23)c1F [P-2281, Ethanesulfonic acid [3-(5-cyano-1H-pyrrolo[2,3-b]pyridine-3-carbonyl)-2,4-difluoro-phenyl]-amide]
≤ 10 | ≤ 10 | ≤ 10 | – | ≤ 10 | – | COc1ccnc2[nH]cc(C(=O)c3c(F)ccc(NS(C)(=O)=O)c3F)c12 [P-2293, N-[2,4-Difluoro-3-(4-methoxy-1H-pyrrolo[2,3-b]pyridine-3-carbonyl)-phenyl]-methanesulfonamide]
≤ 10 | ≤ 10 | ≤ 10 | ≤ 10 | – | – | CCCS(=O)(=O)Nc1cccc(C(=O)c2c[nH]c3ncc(C)cc23)c1F [P-2403, Propane-1-sulfonic acid [2-fluoro-3-(5-methyl-1H-pyrrolo[2,3-b]pyridine-3-carbonyl)-phenyl]-amide]
≤ 10 | ≤ 10 | ≤ 10 | ≤ 10 | – | – | CCCS(=O)(=O)Nc1cccc(C(=O)c2c[nH]c3nccc(C#N)c23)c1F [P-2409, Propane-1-sulfonic acid [3-(4-cyano-1H-pyrrolo[2,3-b]pyridine-3-carbonyl)-2-fluoro-phenyl]-amide]
– | ≤ 10 | ≤ 10 | ≤ 10 | – | – | CCC(C)S(=O)(=O)Nc1cccc(C(=O)c2c[nH]c3ncc(C#N)cc23)c1F (stereo not shown) [P-2413, Butane-2-sulfonic acid [3-(5-cyano-1H-pyrrolo[2,3-b]pyridine-3-carbonyl)-2-fluoro-phenyl]-amide]
– | ≤ 10 | ≤ 10 | ≤ 10 | – | – | N#Cc1cnc2[nH]cc(C(=O)c3cccc(NS(=O)(=O)CCC(F)(F)F)c3F)c2c1 [P-2415, 3,3,3-Trifluoro-propane-1-sulfonic acid [3-(5-cyano-1H-pyrrolo[2,3-b]pyridine-3-carbonyl)-2-fluoro-phenyl]-amide]
– | ≤ 10 | ≤ 10 | ≤ 10 | – | – | N#Cc1cnc2[nH]cc(C(=O)c3cccc(NS(=O)(=O)C4CCCCC4)c3F)c2c1 [P-2416, Cyclohexanesulfonic acid [3-(5-cyano-1H-pyrrolo[2,3-b]pyridine-3-carbonyl)-2-fluoro-phenyl]-amide]
– | ≤ 10 | ≤ 10 | ≤ 10 | – | – | N#Cc1cnc2[nH]cc(C(=O)c3cccc(NS(=O)(=O)C4CCC4)c3F)c2c1 [P-2418, Cyclobutanesulfonic acid [3-(5-cyano-1H-pyrrolo[2,3-b]pyridine-3-carbonyl)-2-fluoro-phenyl]-amide]
– | – | ≤ 10 | – | ≤ 10 | – | CN(C)S(=O)(=O)Nc1cccc(C(=O)c2c[nH]c3ncc(C#N)cc23)c1F [P-2419, N,N-dimethylamino-sulfonic acid [3-(5-cyano-1H-pyrrolo[2,3-b]pyridine-3-carbonyl)-2-fluoro-phenyl]-amide]
≤ 10 | ≤ 10 | ≤ 10 | ≤ 10 | – | – | COc1ncc(-c2cnc3[nH]cc(C(=O)c4cccc(NS(=O)(=O)N5CCCC5)c4F)c3c2)cn1 [P-2422, Pyrrolidine-1-sulfonic acid {2-fluoro-3-[5-(2-methoxy-pyrimidin-5-yl)-1H-pyrrolo[2,3-b]pyridine-3-carbonyl]-phenyl}-amide]

From patent publication US20120122860A1, “SOLID FORMS OF SULFONAMIDES AND AMINO ACIDS” (Plexxikon, Inc., priority 2009, published 2012)
